Consider one molecule from PubChem BioAssay (NCI).

Where “and” joins values, the source holds several entries; their conditions need not be identical. Identical values can stand only once.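 Five concentrations, 48 hours, 96-well plates. Here, GI50 denotes the concentration required for 50% inhibition of growth. TGI is the concentration that stops growth completely.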

Assay [1] concerns P388/ADR leukemia. Kind of assay: NCI tumour cell line growth inhibition, 48 h.
Assay [2] has as its system SN12K1 renal. Kind of assay: NCI tumour cell line growth inhibition, 48 h.

For `Cc1[nH]c(=O)[nH]c(=O)c1N(CCF)CCCl`, in assay [1], the GI50 is 242 µM; the TGI is 557 µM and 1110 µM. Further, in assay [2], the GI50 was 187 µM; the TGI was 513 µM and 703 µM and 657 µM.
